Measurements taken from US8410085B2, “Phospholipid compositions and uses thereof” (Baylor College of Medicine, priority 2007, dated 2013).

What was measured:
LRH-1 [1] = target: T1, LRH-1 (Homo sapiens, UniProt O00482); experiment: human LRH-1 transactivation, HeLa cotransfection with LRH-1/SF-1 response element luciferase reporter; format: cell-based; parameters: expressed in transfected cells; host or cells: HeLa (A1, A3); settings: HeLa cells, 100 μM
Procedure: Controls (vector only and no lipid) are as indicated. […] Cells were treated with 100 μM of the indicated PCs and luciferase expression (RLU, relative light units) was normalized using an internal β-galactosidase control. vec, empty vector; −, ethanol solvent control.
HeLa cells were transfected with an hLRH-1 expression vector along with mSHP1080-Luc reporter. […] Oct4-PPmut Luc is identical to Oct4-PP Luc except for the insertion of point mutations in the DR0 element. […] HeLa cells were cotransfected with various nuclear receptors and the reporter plasmid (RE-tk-luc). […] Data are expressed for each reporter as fold activation of normalized luciferase activity relative to veh-treated cells.
A number of different phosphatidylcholine (PC) species were screened for effects on human LRH-1 transactivation in HeLa cell cotransfections with a synthetic luciferase reporter containing multiple copies of an LRH-1/SF-1 response element.

SF-1 [2] = target: T2, SF-1 (Homo sapiens, UniProt Q13285); parameters: expressed in transfected cells; host or cells: HeLa; settings: in vitro, Li et al. Mol Cell Biol 2007; read-out: affinity of SF-1; cited from earlier work
SF-1 [3] = target: T2, SF-1; experiment: SF-1 transactivation, reporter cotransfection in HeLa cells
[4] = tested on: hepatic expression of Cyp7A1, Cyp8B1, mSR-BI, SHP; experiment: hepatic gene expression (Q-PCR) in wild type mice after oral gavage; format: in vivo, mouse; settings: 100 mg/kg oral, five times over three days
Text: (§1) Total liver RNA was isolated and prepared for the cDNA. […] Total liver RNA was isolated and prepared for cDNA.

TRβ = TRβ (Homo sapiens, UniProt P10828); experiment: nuclear receptor cotransfection (RE-tk-luc), HeLa cells; settings: 100 μM
PPARδ = PPARδ (Homo sapiens, UniProt Q03181); experiment: as above; settings: 100 μM
mouse CAR = mouse CAR (Mus musculus, UniProt O35627); experiment: as above; settings: 100 μM
human PXR = human PXR (Homo sapiens, UniProt O75469); experiment: as above; settings: 100 μM
hepatic gene expression = experiment: hepatic mRNA levels in db/db mice
human CAR = human CAR (Homo sapiens, UniProt Q14994); experiment: nuclear receptor cotransfection (RE-tk-luc), HeLa cells; settings: 100 μM
LXRα = LXRα (Homo sapiens, UniProt Q13133); experiment: as above; settings: 100 μM
RARβ = RARβ (Homo sapiens, UniProt P10826); experiment: as above; settings: 100 μM
db/db mice [5] = experiment: glucose tolerance and insulin tolerance tests in db/db mice; format: in vivo, mouse; settings: for glucose tolerance test (GTT): oral gavage 2 weeks
Procedure: Glucose tolerance (GTT: 1.5 g/kg i.p.) was assessed in fasted mice. One week later, insulin tolerance (ITT: 2 U/kg i.p) was assessed in fed mice. In the ITT, glucose levels after insulin injection are presented as the percentage of initial glucose concentrations.
After 1 week of additional treatment, the same mice were given an insulin tolerance test (ITT) and sacrificed.

db/db mice [6] = experiment: body and organ weights, serum and hepatic parameters in db/db mice
FXR = FXR (Homo sapiens, UniProt Q96RI1); experiment: nuclear receptor cotransfection (RE-tk-luc), HeLa cells; settings: 100 μM
wild type male mice = experiment: bile acids, serum glucose and NEFA in wild type mice after oral gavage; format: in vivo, mouse; settings: 100 mg/kg oral
ERα = ERα (Homo sapiens, UniProt P03372); experiment: nuclear receptor cotransfection (RE-tk-luc), HeLa cells; settings: 100 μM
PPARα = PPARα (Homo sapiens, UniProt Q07869); experiment: as above; settings: 100 μM
RXRα = RXRα (Homo sapiens, UniProt P19793); experiment: as above; settings: 100 μM
LRH-1 target Cyp8B1 = experiment: hCYP8B1 expression by Q-PCR in C3A HepG2 cells; settings: for expression of Cyp8B1: C3A/HepG2 cells or cells with non-target control siRNAs
PPARγ = PPARγ (Homo sapiens, UniProt P37231); experiment: nuclear receptor cotransfection (RE-tk-luc), HeLa cells; settings: 100 μM
LRH-1 [7] = experiment: hepatic gene expression in LRH-1 f/f mice infected with Ad-Cre; format: in vivo, mouse; settings: 100 mg/kg oral
Text: as §1

LRH-1 [8] = target: T1, LRH-1; experiment: Oct4 proximal promoter (Oct4-PP Luc) activation by hLRH-1 in COS-1 cells; settings: COS-1 cells, Oct4-PP Luc
[9] = target: hLRH-1 LBD / SRC-3 receptor interaction domain (Homo sapiens, UniProt O00482); experiment: mammalian two-hybrid assay, VP16-hLRH1 LBD with Gal4-SRC3 RID in HeLa cells
LRH-1 [10] = target: T1, LRH-1; experiment: LRH-1 Luc reporter in C3A HepG2 cells (endogenous hLRH-1); settings: C3A/HepG2 cells or cells with non-target control siRNAs

T2 sequence (Q13285 whole entry): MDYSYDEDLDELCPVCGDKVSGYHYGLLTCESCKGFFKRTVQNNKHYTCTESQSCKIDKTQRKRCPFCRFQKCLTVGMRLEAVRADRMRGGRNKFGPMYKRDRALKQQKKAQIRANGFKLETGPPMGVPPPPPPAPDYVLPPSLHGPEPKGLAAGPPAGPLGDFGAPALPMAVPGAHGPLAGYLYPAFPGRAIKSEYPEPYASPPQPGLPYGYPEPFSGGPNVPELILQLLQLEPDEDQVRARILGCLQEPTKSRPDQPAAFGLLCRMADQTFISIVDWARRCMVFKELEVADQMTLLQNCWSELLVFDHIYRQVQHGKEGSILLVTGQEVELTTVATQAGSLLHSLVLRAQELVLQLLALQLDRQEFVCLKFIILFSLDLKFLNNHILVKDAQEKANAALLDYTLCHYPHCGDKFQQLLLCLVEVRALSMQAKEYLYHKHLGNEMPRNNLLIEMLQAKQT
T1 sequence (O00482 whole entry): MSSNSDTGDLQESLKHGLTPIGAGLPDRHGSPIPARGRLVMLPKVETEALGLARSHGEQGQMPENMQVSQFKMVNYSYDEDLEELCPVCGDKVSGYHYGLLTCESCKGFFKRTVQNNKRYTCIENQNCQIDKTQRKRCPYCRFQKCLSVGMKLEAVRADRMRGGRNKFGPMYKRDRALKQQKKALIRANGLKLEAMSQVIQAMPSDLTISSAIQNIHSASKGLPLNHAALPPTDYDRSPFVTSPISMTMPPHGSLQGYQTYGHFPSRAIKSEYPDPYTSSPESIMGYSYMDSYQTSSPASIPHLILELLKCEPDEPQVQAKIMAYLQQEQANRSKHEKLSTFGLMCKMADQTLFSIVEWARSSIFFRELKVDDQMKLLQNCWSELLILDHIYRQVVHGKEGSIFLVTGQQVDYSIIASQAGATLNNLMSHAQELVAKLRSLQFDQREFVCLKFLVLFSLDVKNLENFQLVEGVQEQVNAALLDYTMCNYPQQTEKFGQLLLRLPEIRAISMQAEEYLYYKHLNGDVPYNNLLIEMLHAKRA
Chain of hLRH-1 LBD / SRC-3 receptor interaction domain (O00482 300-539 limits assumed): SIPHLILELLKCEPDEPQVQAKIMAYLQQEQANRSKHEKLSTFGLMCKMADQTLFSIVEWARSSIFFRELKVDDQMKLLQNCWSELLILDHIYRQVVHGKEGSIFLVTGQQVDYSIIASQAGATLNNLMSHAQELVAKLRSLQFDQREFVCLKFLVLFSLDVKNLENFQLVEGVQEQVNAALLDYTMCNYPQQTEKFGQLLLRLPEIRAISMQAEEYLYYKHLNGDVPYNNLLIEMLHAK
Chain of hLRH-1 LBD / SRC-3 receptor interaction domain (Q9Y6Q9 whole entry partner, the tested form may be a part): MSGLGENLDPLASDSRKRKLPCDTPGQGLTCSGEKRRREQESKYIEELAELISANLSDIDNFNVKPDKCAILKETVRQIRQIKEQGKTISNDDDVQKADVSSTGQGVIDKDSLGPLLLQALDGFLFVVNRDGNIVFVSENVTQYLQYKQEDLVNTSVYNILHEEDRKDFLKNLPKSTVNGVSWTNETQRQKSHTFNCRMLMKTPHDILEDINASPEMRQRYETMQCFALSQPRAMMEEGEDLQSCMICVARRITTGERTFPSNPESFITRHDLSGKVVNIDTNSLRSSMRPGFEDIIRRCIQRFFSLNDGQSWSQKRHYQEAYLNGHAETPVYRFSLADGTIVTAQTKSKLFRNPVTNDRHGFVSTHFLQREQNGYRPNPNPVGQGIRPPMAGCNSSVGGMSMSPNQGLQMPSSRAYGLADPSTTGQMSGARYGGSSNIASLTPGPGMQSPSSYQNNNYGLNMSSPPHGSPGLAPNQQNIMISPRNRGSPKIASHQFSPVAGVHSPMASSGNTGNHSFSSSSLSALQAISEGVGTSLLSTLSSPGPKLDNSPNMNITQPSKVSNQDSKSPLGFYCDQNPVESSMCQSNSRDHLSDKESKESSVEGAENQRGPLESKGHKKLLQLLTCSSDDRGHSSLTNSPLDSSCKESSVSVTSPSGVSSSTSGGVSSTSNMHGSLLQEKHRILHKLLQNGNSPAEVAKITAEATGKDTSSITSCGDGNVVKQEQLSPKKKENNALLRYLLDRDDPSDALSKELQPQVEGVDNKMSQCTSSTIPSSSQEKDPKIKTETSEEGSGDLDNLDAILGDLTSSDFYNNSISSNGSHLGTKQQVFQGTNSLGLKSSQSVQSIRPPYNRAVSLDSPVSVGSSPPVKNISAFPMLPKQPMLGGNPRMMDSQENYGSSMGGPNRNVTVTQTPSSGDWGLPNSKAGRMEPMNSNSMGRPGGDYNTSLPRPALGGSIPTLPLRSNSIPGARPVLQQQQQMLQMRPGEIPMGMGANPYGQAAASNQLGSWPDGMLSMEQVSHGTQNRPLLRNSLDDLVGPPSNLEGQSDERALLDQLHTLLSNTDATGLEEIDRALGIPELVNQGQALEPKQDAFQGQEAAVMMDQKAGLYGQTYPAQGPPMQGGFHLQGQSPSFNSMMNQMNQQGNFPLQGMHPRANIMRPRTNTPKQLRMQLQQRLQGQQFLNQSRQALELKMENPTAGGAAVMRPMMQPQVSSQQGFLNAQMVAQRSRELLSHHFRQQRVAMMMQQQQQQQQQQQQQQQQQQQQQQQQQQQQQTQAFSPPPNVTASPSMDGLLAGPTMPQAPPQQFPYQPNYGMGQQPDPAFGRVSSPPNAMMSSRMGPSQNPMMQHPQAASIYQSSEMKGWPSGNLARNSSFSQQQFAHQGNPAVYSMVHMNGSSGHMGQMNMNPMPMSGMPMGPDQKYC
Chain of TRβ (P10828 whole entry): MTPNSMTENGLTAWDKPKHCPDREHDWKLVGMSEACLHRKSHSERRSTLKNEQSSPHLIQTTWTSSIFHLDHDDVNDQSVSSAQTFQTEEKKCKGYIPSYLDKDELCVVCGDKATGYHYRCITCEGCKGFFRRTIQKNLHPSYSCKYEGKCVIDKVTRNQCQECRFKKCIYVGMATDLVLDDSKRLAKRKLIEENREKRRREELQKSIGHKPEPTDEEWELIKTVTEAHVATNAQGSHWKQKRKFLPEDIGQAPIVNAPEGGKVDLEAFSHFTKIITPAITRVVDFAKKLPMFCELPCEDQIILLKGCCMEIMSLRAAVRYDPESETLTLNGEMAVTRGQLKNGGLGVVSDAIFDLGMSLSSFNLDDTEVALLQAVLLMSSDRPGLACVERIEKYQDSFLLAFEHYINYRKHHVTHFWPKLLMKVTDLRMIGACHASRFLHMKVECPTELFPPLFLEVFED
Chain of RXRα (P19793 whole entry): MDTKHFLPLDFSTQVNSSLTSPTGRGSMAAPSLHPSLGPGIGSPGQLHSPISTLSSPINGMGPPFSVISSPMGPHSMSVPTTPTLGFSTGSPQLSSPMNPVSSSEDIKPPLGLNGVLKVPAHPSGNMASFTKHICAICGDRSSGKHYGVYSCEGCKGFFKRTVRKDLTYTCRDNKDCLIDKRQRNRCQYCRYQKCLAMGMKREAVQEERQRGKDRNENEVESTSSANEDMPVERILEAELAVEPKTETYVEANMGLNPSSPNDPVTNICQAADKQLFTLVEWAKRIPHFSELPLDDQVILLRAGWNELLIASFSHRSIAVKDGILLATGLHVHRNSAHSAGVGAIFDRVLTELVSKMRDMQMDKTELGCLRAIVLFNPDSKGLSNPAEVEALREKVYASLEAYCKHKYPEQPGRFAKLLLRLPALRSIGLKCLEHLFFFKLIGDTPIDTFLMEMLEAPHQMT
Chain of human CAR (Q14994 whole entry): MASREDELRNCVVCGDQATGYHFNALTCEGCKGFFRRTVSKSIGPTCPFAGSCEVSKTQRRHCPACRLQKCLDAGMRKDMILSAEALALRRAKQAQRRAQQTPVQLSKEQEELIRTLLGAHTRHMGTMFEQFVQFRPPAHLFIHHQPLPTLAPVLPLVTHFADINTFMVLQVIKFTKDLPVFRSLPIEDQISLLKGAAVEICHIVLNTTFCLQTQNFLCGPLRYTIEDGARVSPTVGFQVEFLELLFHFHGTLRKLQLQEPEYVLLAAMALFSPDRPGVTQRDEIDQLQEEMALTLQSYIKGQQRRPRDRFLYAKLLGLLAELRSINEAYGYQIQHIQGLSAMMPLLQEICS
Chain of FXR (Q96RI1 whole entry, species assumed): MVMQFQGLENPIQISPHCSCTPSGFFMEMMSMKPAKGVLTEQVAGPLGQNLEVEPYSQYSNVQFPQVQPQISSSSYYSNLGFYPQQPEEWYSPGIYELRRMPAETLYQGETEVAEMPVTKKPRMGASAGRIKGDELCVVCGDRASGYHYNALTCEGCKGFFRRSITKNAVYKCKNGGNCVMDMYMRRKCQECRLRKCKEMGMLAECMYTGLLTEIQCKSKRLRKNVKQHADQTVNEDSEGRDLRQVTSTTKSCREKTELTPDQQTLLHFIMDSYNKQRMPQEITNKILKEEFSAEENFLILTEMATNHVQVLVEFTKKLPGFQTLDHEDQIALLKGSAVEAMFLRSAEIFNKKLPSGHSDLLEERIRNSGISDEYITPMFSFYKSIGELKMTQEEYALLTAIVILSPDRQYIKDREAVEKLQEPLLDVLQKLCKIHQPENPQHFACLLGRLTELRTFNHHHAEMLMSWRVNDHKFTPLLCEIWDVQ
Chain of PPARγ (P37231 whole entry, species assumed): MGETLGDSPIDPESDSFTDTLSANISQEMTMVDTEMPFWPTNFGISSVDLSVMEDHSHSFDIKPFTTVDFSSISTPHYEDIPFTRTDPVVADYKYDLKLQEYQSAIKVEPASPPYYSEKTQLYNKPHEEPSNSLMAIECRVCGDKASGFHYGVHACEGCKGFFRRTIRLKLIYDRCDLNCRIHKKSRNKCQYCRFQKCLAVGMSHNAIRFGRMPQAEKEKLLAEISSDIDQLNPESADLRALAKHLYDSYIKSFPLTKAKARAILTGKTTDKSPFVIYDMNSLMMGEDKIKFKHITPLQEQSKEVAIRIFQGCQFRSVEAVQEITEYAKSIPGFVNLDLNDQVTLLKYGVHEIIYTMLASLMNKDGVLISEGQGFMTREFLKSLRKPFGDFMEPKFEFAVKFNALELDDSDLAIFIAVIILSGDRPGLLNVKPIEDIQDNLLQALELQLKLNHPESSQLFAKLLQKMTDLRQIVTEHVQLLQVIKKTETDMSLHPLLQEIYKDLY

SMILES: CCCCCCCCCCCCCC(=O)OC[C@H](COP(=O)(O)O)OC(=O)CCCCCCCCCCCCC [C14:0-C14:0 PA]
- LRH-1 transactivation (luciferase) (LRH-1 [1]): no effect
- Kd (SF-1 [2]): ~100 nM
- increase of SF-1 transactivation (SF-1 [3]): 1.2-1.4 fold

SMILES: CCCCCCCCCC(=O)OC[C@H](COP(=O)(O)OCCN)OC(=O)CCCCCCCCC [C10:0-10:0 PE]
- LRH-1 transactivation (luciferase) (LRH-1 [1]): no activation

SMILES: CCCCCCCCCCCC(=O)OCC(COP(=O)([O-])OCC[N+](C)(C)C)OC(=O)CCCCCCCCCCC (stereo not drawn) [DLPC, dilauroylphosphatidylcholine]
- hepatic expression of Cyp7A1 [4]: significantly induced
- hepatic expression of Cyp8B1 [4]: significantly induced
- hepatic expression of SHP [4]: repressed
- hepatic expression of mSR-BI [4]: significantly induced
- activation or inhibition of TRβ (TRβ): did not activate or inhibit
- activation or inhibition of PPARδ (PPARδ): did not activate or inhibit
- activation or inhibition of mouse CAR (mouse CAR): did not activate or inhibit
- activation or inhibition of human PXR (human PXR): did not activate or inhibit
- SHP expression (hepatic gene expression; mouse, in vivo): appeared to be decreased
- expression of ACC2 (hepatic gene expression; mouse, in vivo): significantly decreased
- expression of FAS (hepatic gene expression; mouse, in vivo): significantly decreased
- expression of SCD-1 (hepatic gene expression; mouse, in vivo): significantly decreased
- expression of SREBP-1c (hepatic gene expression; mouse, in vivo): significantly decreased
- hepatic expression of Cyp7A1 (hepatic gene expression; mouse, in vivo): increased expression
- hepatic expression of Cyp8B1 (hepatic gene expression; mouse, in vivo): increased expression
- hepatic expression of genes associated with glucose homeostasis (ACC1, glucokinase, hexokinase 1 and 2, PEPCK, glucose-6-phosphatase, pyruvate carboxylase, PGC-1α) (hepatic gene expression; mouse, in vivo): no effect
- activation or inhibition of human CAR (human CAR): did not activate or inhibit
- activation or inhibition of LXRα (LXRα): did not activate or inhibit
- activation or inhibition of RARβ (RARβ): did not activate or inhibit
- glucose tolerance test (GTT) (db/db mice [5]): remarkable improvement
- insulin tolerance test (ITT) (db/db mice [5]; oral gavage 3 weeks): remarkable improvement
- hepatic NEFA (db/db mice [6]): more modestly lowered
- hepatic cholesterol (db/db mice [6]): increased
- hepatic triglycerides (TG) (db/db mice [6]): significantly decreased
- serum bile acid levels (db/db mice [6]): significantly increased
- serum cholesterol (db/db mice [6]): modestly decreased
- serum free fatty acids (NEFA) (db/db mice [6]): modestly decreased
- total body weight (db/db mice [6]): not altered
- weight of liver (db/db mice [6]): not altered
- weight of reproductive fat pads (db/db mice [6]): not altered
- activation or inhibition of FXR (FXR): did not activate or inhibit
- liver bile acids (wild type male mice): somewhat lower
- serum bile acid levels (wild type male mice): substantially elevated
- serum free fatty acids (wild type male mice): decreased levels
- serum glucose levels (wild type male mice): decreased serum glucose levels
- total bile acid pool (wild type male mice): significant increase
- activation or inhibition of ERα (ERα): did not activate or inhibit
- activation or inhibition of PPARα (PPARα): did not activate or inhibit
- activation or inhibition of RXRα (RXRα): did not activate or inhibit
- SF-1 activation (SF-1 [3]; 100 μM): activate SF-1
- expression of Cyp8B1 (LRH-1 target Cyp8B1): modestly but significantly induced
- Cyp8B1 response when LRH-1 expression is knocked down (LRH-1 target Cyp8B1; siRNA hLRH-1): lost
- activation or inhibition of PPARγ (PPARγ): did not activate or inhibit

SMILES: CCCCCCCCCCCC(=O)OC[C@H](COP(=O)(O)OCCN)OC(=O)CCCCCCCCCCC [C12:0-12:0 PE]
- LRH-1 transactivation (luciferase) (LRH-1 [1]): no activation

SMILES: C[C@H](CCC(=O)O)[C@H]1CC[C@H]2[C@@H]3[C@H](O)C[C@@H]4C[C@H](O)CC[C@]4(C)[C@H]3C[C@H](O)[C@]12C [CA, cholic acid, reference compound]
- hepatic expression of Cyp7A1 [4]: reduced
- hepatic expression of Cyp8B1 [4]: reduced
- hepatic expression of SHP [4]: induced
- hepatic expression of mSR-BI [4]: induced
- hepatic gene expression response when LRH-1 gene removed by Cre (LRH-1 [7]): lost
- liver bile acids (wild type male mice): did not show statistically significant changes
- serum bile acid levels (wild type male mice): substantially elevated
- serum free fatty acids (wild type male mice): decreased levels
- serum glucose levels (wild type male mice): not
- response with the Oct4 promoter (LRH-1 [8]): not

SMILES: C[C@H](CCC(=O)O)[C@H]1CC[C@H]2[C@@H]3[C@H](O)C[C@@H]4C[C@H](O)CC[C@]4(C)[C@H]3CC[C@]12C [CDCA, chenodeoxycholic acid]
- interaction of hLRH-1 LBD with SRC-3 RID [9]: unaffected
- LRH-1 Luc luciferase activity (LRH-1 [10]): not

SMILES: CCCCCCCCCCCCCCCC(=O)OC[C@H](COP(=O)([O-])OCC[N+](C)(C)C)OC(=O)CCCCCCCCCCCCCCC [DPPC, dipalmitoyl PC, reference compound]
- hepatic expression of Cyp7A1 [4]: without significant effect
- hepatic expression of Cyp8B1 [4]: without significant effect
- hepatic expression of SHP [4]: without significant effect
- hepatic expression of mSR-BI [4]: without significant effect
- SR-B1 expression (hepatic gene expression; db/db mice): not significantly affected
- hepatic expression of Cyp7A1 (hepatic gene expression; db/db mice): not
- hepatic expression of genes associated with glucose homeostasis (ACC1, glucokinase, hexokinase 1 and 2, PEPCK, glucose-6-phosphatase, pyruvate carboxylase, PGC-1α) (hepatic gene expression; db/db mice): no effect
- SHP expression (hepatic gene expression; db/db mice, not statistically significant): appeared to be decreased
- interaction of hLRH-1 LBD with SRC-3 RID [9]: unaffected
- glucose tolerance test (GTT) (db/db mice [5]): lesser beneficial response
- serum bile acid levels (db/db mice [6]): not
- total body weight (db/db mice [6]): not altered
- weight of liver (db/db mice [6]): not altered
- weight of reproductive fat pads (db/db mice [6]): not altered
- LRH-1 Luc luciferase activity (LRH-1 [10]): not
- response with the Oct4 promoter (LRH-1 [8]): not
- expression of Cyp8B1 (LRH-1 target Cyp8B1): not

SMILES: CCCCCCCCCCCCCC(=O)OC[C@H](COP(=O)(O)OCCN)OC(=O)CCCCCCCCCCCCC [C14:0-C14:0 PE]
- LRH-1 transactivation (luciferase) (LRH-1 [1]): no activation
